The nature of series [1]: Pharmacokinetic Evaluation in Mice. More on the design: unit not given here. The format is in vivo. Conditions: single intravenous (IV) injection at 10 mg/kg, CL57 BL/6 mice, brain homogenate. The procedure: Pharmacokinetic Evaluation in Mice
Several compounds disclosed herein were evaluated in a standard murine pharmacokinetic model.
Compounds were dissolved in either 5% DMSO, 40% PEG400, and 55% saline (pH=8) or […], 40% PEG400, and 55% (20% HP-β-CD in deionized water; pH=8) to yield a nominal concentration of 2 mg/mL for intravenous administration. Compounds were administered via a single intravenous (IV) injection in CL57 BL/6 mice at 10 mg/kg in DMSO/PEG400 solution. Three mice in each group were used for blood and brain collection at each time point. Blood samples (300 μL) were collected via the retro-orbital vein predose and at 5 min, 0.25, 0.50, 1, 2, 4, 6, 8, and 24 hours postdose. Blood samples were placed into tubes containing sodium heparin and centrifuged under refrigerated conditions at 8000 rpm for 6 minutes to separate plasma from the samples. The brain of each animal was collected after the final blood collection. The whole tissue was harvested, excised and rinsed by saline, dried by filter paper, and then placed into one tube per tissue per animal. All samples were stored at −20° C. until bioanalysis.
Compound concentrations in plasma and brain homogenate were determined using a high performance liquid chromatography/mass spectrometry (HPLC/MS/MS) method (Agilent 1100 series HPLC, AB Inc. API4000 triple-quadrupole with an ESI interface and Analyst 1.4 software).
Results in the form of area under the time-versus-concentration curve (AUC) are given below in Table 5.

A further series concerns the target MLK3 (Homo sapiens (Human), UniProt Q16584). Kind of series: Radiometric Filter Plate MLK3 Assay. The format is biochemical. Conditions: read-out: MK3 IC50. Here is the method:
Radiometric Filter Plate MLK3 Assay
After a twenty minute incubation, the reactions were washed through filter plates and read on a scintillation counter. Results are shown in Table 4 below, in which +++ indicates ≦0.1 μM, ++ indicates >0.1 μM and ≦1 μM, and + indicates >1 μM.

[2] abbreviates: 200 ng (130 nM) MLK3, 1 μM inactive MKK7b, 2 μM cold ATP (Km), 33P ATP, twenty minute incubation.

SMILES strings stand for the structures. Where two headings read alike, the source gives them in different places.

MLK3, sequence (Q16584 whole entry): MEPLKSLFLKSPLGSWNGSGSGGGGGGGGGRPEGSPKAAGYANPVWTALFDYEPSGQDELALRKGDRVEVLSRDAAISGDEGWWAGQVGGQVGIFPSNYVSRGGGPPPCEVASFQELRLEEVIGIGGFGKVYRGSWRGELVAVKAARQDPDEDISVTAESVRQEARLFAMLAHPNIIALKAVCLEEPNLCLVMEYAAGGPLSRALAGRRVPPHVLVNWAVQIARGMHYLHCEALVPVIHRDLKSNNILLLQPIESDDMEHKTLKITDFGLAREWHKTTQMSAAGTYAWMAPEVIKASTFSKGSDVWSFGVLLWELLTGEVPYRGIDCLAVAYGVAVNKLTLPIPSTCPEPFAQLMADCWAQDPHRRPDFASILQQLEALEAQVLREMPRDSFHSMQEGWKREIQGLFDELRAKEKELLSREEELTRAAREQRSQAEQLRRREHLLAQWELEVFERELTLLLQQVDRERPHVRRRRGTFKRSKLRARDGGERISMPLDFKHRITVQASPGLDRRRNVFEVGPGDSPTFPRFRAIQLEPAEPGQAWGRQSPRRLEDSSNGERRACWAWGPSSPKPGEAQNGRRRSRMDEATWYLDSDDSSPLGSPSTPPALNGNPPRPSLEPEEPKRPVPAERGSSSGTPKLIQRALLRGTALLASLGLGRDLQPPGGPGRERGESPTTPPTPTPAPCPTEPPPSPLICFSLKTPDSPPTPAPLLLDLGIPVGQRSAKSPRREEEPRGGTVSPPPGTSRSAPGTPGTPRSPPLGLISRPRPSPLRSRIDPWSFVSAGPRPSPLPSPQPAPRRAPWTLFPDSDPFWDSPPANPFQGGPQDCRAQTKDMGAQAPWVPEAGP

In the case of `Nc1ncc(-c2cnc3[nH]cc(-c4ccc5[nH]ccc5c4)c3c2)cn1` [Example 9, 5-(3-(1H-indol-5-yl)-1H-pyrrolo[2,3-b]pyridin-5-yl)pyrimidin-2-amine], the “AUC Brain” value in series [1] was “+ (+ indicates ≧500)”. Besides, on MLK3 (setting [2]), the IC50 is less than 100 nM.
With `COc1cc(-c2cnc3[nH]cc(-c4cnc(N)nc4)c3c2)cc(OC)c1OC` [Example 17, 5-(5-(3,4,5-trimethoxyphenyl)-1H-pyrrolo[2,3-b]pyridin-3-yl)pyrimidin-2-amine], the “AUC Brain” value in series [1] was “− (− indicates <500)”. The concentration for half-maximal inhibition (IC50) at MLK3 (setting [2]) was less than 100 nM.
`Nc1ccc(-c2cnc3[nH]cc(-c4ccc5[nH]ccc5c4)c3c2)cn1` [Example 4, 5-(3-(1H-indol-5-yl)-1H-pyrrolo[2,3-b]pyridin-5-yl)pyridin-2-amine]: the “AUC Brain” value in series [1] is reported as “− (− indicates <500)”. Also, at MLK3 (setting [2]), the IC50 was less than 100 nM.
Taken in the same sequence, the figures for `COc1cc(-c2cnc3[nH]cc(-c4ccc(N)nc4)c3c2)cc(OC)c1OC` [Example 18, 5-(5-(3,4,5-trimethoxyphenyl)-1H-pyrrolo[2,3-b]pyridin-3-yl)pyridin-2-amine] were “− (− indicates <500)” and less than 100 nM.
With `CN1CCN(Cc2ccc(-c3cnc4[nH]cc(-c5ccc6[nH]ccc6c5)c4c3)cc2)CC1` [Example 32, 3-(1H-indol-5-yl)-5-(4-((4-methylpiperazin-1-yl)methyl)phenyl)-1H-pyrrolo[2,3-b]pyridine], the “AUC Brain” value in series [1] is on record as “+ (+ indicates ≧500)”. Also, the IC50 on MLK3 was less than 100 nM.

The values above are taken from US9814704B2, “Substituted pyrrolo[2,3-b]pyridines as MLK inhibitors” (The University of Rochester, priority 2008, dated 2017).
